In patent US20210171948A1, “COMPOSITIONS AND METHODS FOR TARGETING GLYPICAN-2 IN THE TREATMENT OF CANCER” (Shepherd Therapeutics, Inc., priority 2019, published 2021):
Strand notation (5' to 3'): a small letter for the sugar, then the base; units joined by * are phosphorothioate-linked, units joined directly phosphodiester-linked; [ ] holds rarer units or linkages, { } end groups; capitals alone tell only the bases. d = 2'-deoxy (DNA); r = 2'-OH (RNA)

Legend:
GPC2 mRNA [1] = assay: GPC2 mRNA knockdown in multiple cancer cell lines, 96 hour (Example 3); assay type: cell-based, human; conditions: 96 hour incubation
Description: siRNAs 1-5 from Table 7 were diluted to 40 nM in OptiMEM media and mixed in a 1:3 ratio (weight by volume) with RNAiMAX. This was incubated for 15 minutes at room temperature and dispensed onto cells plated in a 6 well tissue culture plate. Total RNA samples were collected at either 72 hours post transfection to compare knockdown efficiency (FIG. 2A), or at 24, 48, 72 or 96 hours post transfection to determine the extent of GPC2 mRNA knockdown over time (FIG. 2B). Expression levels of mRNA of GPC2 were measured in these samples using primers specific for GPC2 obtained commercially from Thermofisher (Carlsbad, Calif.) and standard qPCR technique.
GPC2 mRNA knockdown and changes in cell viability were assessed in multiple cancer cell lines. Cells were transfected with either a scrambled control siRNA or with GPC2 siRNA sequence 3 or sequence 5 from Table 7 using the RNAiMAX Lipofectamine kit (Invitrogen, Carlsbad, Calif.) as previously described in Example 2, either in 96 well format (for viability assays) or 6 well format (for knockdown assessment). Following a 96 hour incubation period, cells were washed and the viability measurement was assessed using Cell Titer Glo 2.0. Total RNA was isolated from the 6 well plate samples to determine knockdown efficiency.

CHP212 cells = assay: Carboplatin IC50 in siRNA-transfected cells, Cell Titer Glo 2.0 viability (Example 6); assay type: cell-based; conditions: for Data Summary: effect of knockdown on sensitivity to carboplatin: CHP212; for IC50: CHP212 cells transfected with the labelled siRNA, carboplatin added 24 hours post transfection, 72 hour incubation
Description: (§1) GPC2 mRNA expression was reduced using the indicated siRNAs and changes in cell viability were assessed in multiple neuroblastoma cell lines. Cells were transfected with either a control siRNA or with GPC2 siRNA sequences 3, 5 or 7 from Table 7 using the RNAiMAX Lipofectamine kit (Invitrogen, Carlsbad, Calif.) as previously described in 96 wells for viability assays. Carboplatin was added at increasing concentrations (0 to 150 uM) to transfected cells at 24 hours post transfection. Following a 72 hour incubation period, viability measurements were made using Cell Titer Glo 2.0.

CHLA-90 cells = assay: as above; assay type: cell-based; conditions: for Data Summary: effect of knockdown on sensitivity to carboplatin: CHLA-90; for IC50: CHLA-90 cells transfected with the labelled siRNA, carboplatin added 24 hours post transfection, 72 hour incubation
Description: as §1

SH-SY5Y cells = assay: as above; assay type: cell-based; conditions: for Data Summary: effect of knockdown on sensitivity to carboplatin: SH-SY5Y; for IC50: SH-SY5Y cells transfected with the labelled siRNA, carboplatin added 24 hours post transfection, 72 hour incubation
Description: as §1

SK-N-BE2 cells = assay: as above; assay type: cell-based; conditions: for Data Summary: effect of knockdown on sensitivity to carboplatin: SK-N-BE2; for IC50: SK-N-BE2 cells transfected with the labelled siRNA, carboplatin added 24 hours post transfection, 72 hour incubation
Description: as §1

GPC2 protein = GPC2 protein expression by flow cytometry of immunostained cells after siRNA transfection; assay type: cell-based, human; conditions: for Time point at which GPC2 protein expression started to decrease: CHP212, SH-SY5Y and CHLA90 neuroblastoma cell lines
Description: The extent of GPC2 mRNA reduction (knockdown) and corresponding protein level expression changes were assessed in three neuroblastoma cell lines following siRNA knockdown of GPC2. The CHP212 neuroblastoma cell line (FIG. 5A and FIG. 5D), the SH-SY5Y neuroblastoma cell line (FIG. 5B and FIG. 5E) and the CHLA90 neuroblastoma cell line (FIG. 5C and FIG. 5F) were transfected with GPC2 siRNA sequences 5 and 7 from Table 7 and a scrambled control siRNA using the RNAiMAX Lipofectamine kit (Invitrogen, Carlsbad, Calif.) as previously described. Following a 24, 48, or 72 hour incubation period, cells were washed and total RNA was isolated for measuring GPC2 mRNA expression. For protein analysis, cells were fixed, immunostained using an antibody against GPC2 protein, protein expression was measured via flow cytometry. As shown, GPC2 mRNA knockdown was observed beginning at the 24 hr time point and lasted for at least 72 hours. GPC2 protein expression started to decrease at the 48 hr time point.

[2] = system: spheroids from CHP212, SKNAS, SK-N-BE2 and CHLA90 neuroblastoma cells; assay: Viability of established spheroid cultures after siRNA transfection (Example 11); assay type: cell-based; conditions: 96 hour following transfection; where GPC2 knockdown was observed (FIG. 7B)
Description: The effect of siRNA mediated GPC2 mRNA knockdown was also assessed on established spheroid cultures. Spheroids were established by seeding cells in low attachment plates and culturing for 96 hours. Spheroids were transfected with either a scrambled control siRNA or with GPC2 siRNA of sequence 5 or 7 from Table 7, using the RNAiMAX Lipofectamine kit (Invitrogen, Carlsbad, Calif.) as previously described. At the 96 hour time point following transfection, the degree of GPC2 mRNA knockdown (FIG. 7A) as well as spheroid viability (FIG. 7B) was measured.

GPC2 mRNA [3] = assay: GPC2 mRNA knockdown in cell lines of the cisplatin experiment (Example 5); assay type: cell-based, human
Description: GPC2 mRNA was reduced using the indicated siRNAs and changes in cell viability were assessed in multiple cancer cell lines, in combination with Cisplatin treatment. Cells were transfected with either a scrambled control siRNA or with GPC2 siRNA sequences 3 or 5 from Table 7 using the RNAiMAX Lipofectamine kit (Invitrogen, Carlsbad, Calif.), as previously described, in either in 96 well (for viability assays) or 6 well format (for total RNA). Cisplatin was added at increasing concentrations (0 to 30 uM) to transfected cells at 24 hours post transfection. Following a 72 hour incubation period, cell viability was measured using Cell Titer Glo 2.0. Total RNA samples were also isolated to measure knockdown efficiency.

[4] = GIST-T1 (Gastrointestinal Stromal)
[5] = CHLA90 cells, at 72 hours (FIG. 5F)
[6] = CHP212 cells, at 48 and 72 hours (FIG. 5D)
[7] = SH-SY5Y cells, at 48 and 72 hours (FIG. 5E)

## GPC2 siRNA 5: siRNA duplex: sense CUCAGUAGCCCAGCACUCU[dT][dT] (SEQ ID NO: 211), anti-sense AGAGUGCUGGGCUACUGAG[dT][dT] (SEQ ID NO: 212) (sense CUCAGUAGCCCAGCACUCUTT; antisense AGAGUGCUGGGCUACUGAGTT; sugars from the 5' end r19 d2, backbone not given here; listed as Homo sapiens)
GPC2 mRNA [1]; CHP212 (Neuroblastoma)
  % GPC2 knockdown: 65%
GPC2 mRNA [1]; COV362 (Ovarian Carcinoma)
  % GPC2 knockdown: 79%
GPC2 mRNA [1]; [4]
  % GPC2 knockdown: 76%
GPC2 mRNA [1]; IMR32 (Neuroblastoma)
  % GPC2 knockdown: 25%
GPC2 mRNA [1]; MCF7 (Breast)
  % GPC2 knockdown: 82%
GPC2 mRNA [1]; RH30 (Rhabdomyosarcoma)
  % GPC2 knockdown: 83%
GPC2 mRNA [1]; RH41 (Rhabdomyosarcoma)
  % GPC2 knockdown: 60%
GPC2 mRNA [1]; SKNAS (Neuroblastoma)
  % GPC2 knockdown: 44%
GPC2 mRNA [1]; SNU16 (Gastric)
  % GPC2 knockdown: 25%
GPC2 mRNA [1]; TC32 (Ewing's Sarcoma)
  % GPC2 knockdown: 57%
GPC2 mRNA [1]; TC71 (Ewing's Sarcoma)
  % GPC2 knockdown: 33%
GPC2 mRNA [1]; TOV112D (Ovarian Carcinoma)
  % GPC2 knockdown: 78%
GPC2 mRNA [1]; multiple cancer cell lines
  GPC2 knockdown across the cell lines of Table 8: GPC2 knockdown was observed in each cell line
CHP212 cells
  Data Summary: effect of knockdown on sensitivity to carboplatin: increases sensitivity to
  IC50: 10.4 µM
CHLA-90 cells
  Data Summary: effect of knockdown on sensitivity to carboplatin: increases sensitivity to
  IC50: 100 µM
SH-SY5Y cells
  Data Summary: effect of knockdown on sensitivity to carboplatin: increases sensitivity to
  IC50: 1.55 µM
SK-N-BE2 cells
  Data Summary: effect of knockdown on sensitivity to carboplatin: increases sensitivity to
  IC50: 11 µM
GPC2 protein; [5]
  GPC2 protein expression (Mean Fluorescence (FL1) Intensity): Reduced GPC2 protein expression
GPC2 protein
  Time point at which GPC2 protein expression started to decrease: 48 h
GPC2 protein; [6]
  GPC2 protein expression (Mean Fluorescence (FL1) Intensity): Reduced GPC2 protein expression
GPC2 protein; [7]
  GPC2 protein expression (Mean Fluorescence (FL1) Intensity): Reduced GPC2 protein expression
[2]
  Viability of established spheroids: a decrease in spheroid viability was also seen
GPC2 mRNA [3]; CHLA-90 (Neuroblastoma)
  % GPC2 knockdown: 55%
GPC2 mRNA [3]; CHLA-136 (Neuroblastoma)
  % GPC2 knockdown: 35%
GPC2 mRNA [3]; CHLA-172 (Neuroblastoma)
  % GPC2 knockdown: 8%
GPC2 mRNA [3]; CHP212 (Neuroblastoma)
  % GPC2 knockdown: 70%
GPC2 mRNA [3]; COV362 (Ovarian cancer)
  % GPC2 knockdown: 89%
GPC2 mRNA [3]; [4]
  % GPC2 knockdown: 75%
GPC2 mRNA [3]; KELLY (Neuroblastoma)
  % GPC2 knockdown: 75%
GPC2 mRNA [3]; RH30 (Rhabdomyosarcoma)
  % GPC2 knockdown: 86%
GPC2 mRNA [3]; RH41 (Rhabdomyosarcoma)
  % GPC2 knockdown: 70%
GPC2 mRNA [3]; SH-SY5Y (Neuroblastoma)
  % GPC2 knockdown: 75%
GPC2 mRNA [3]; SK-N-BE2 (Neuroblastoma)
  % GPC2 knockdown: 68%
GPC2 mRNA [3]; SKNAS (Neuroblastoma)
  % GPC2 knockdown: 70%
GPC2 mRNA [3]; SNU16 (Gastric carcinoma)
  % GPC2 knockdown: 52%
GPC2 mRNA [3]; TC32 (Ewing's sarcoma)
  % GPC2 knockdown: 75%
GPC2 mRNA [3]; TC71 (Ewing's sarcoma)
  % GPC2 knockdown: 60%
GPC2 mRNA [3]; TOV112D (Ovarian cancer)
  % GPC2 knockdown: 86%

## GPC2 siRNA 7: siRNA duplex: sense CUCCUUUCUGGUUCACACA[dT][dT] (SEQ ID NO: 215), anti-sense UGUGUGAACCAGAAAGGAG[dT][dT] (SEQ ID NO: 216) (sense rCrUrCrCrUrUrUrCrUrGrGrUrUrCrArCrArCrAdTdT; antisense rUrGrUrGrUrGrArArCrCrArGrArArArGrGrArGdTdT; listed as Homo sapiens)
CHP212 cells
  Data Summary: effect of knockdown on sensitivity to carboplatin: increases sensitivity to
  IC50: 8.14 µM
CHLA-90 cells
  Data Summary: effect of knockdown on sensitivity to carboplatin: increases sensitivity to
  IC50: 15 µM
SH-SY5Y cells
  Data Summary: effect of knockdown on sensitivity to carboplatin: increases sensitivity to
  IC50: 0.47 µM
SK-N-BE2 cells
  Data Summary: effect of knockdown on sensitivity to carboplatin: increases sensitivity to
  IC50: 2.5 µM
GPC2 protein; [5]
  GPC2 protein expression (Mean Fluorescence (FL1) Intensity): Reduced GPC2 protein expression
GPC2 protein
  Time point at which GPC2 protein expression started to decrease: 48 h
GPC2 protein; [6]
  GPC2 protein expression (Mean Fluorescence (FL1) Intensity): Reduced GPC2 protein expression
GPC2 protein; [7]
  GPC2 protein expression (Mean Fluorescence (FL1) Intensity): Reduced GPC2 protein expression
[2]
  Viability of established spheroids: a decrease in spheroid viability was also seen
